Measurements reported in PMC3574188 (Bioorganic & medicinal chemistry, 2012).

Legend:
BoNT/A LC (1-425aa) [1] = molecular target: T1, BoNT/A LC (1-425aa) (Clostridium botulinum, UniProt P0DPI0); type: biochemical
BoNT/A LC (1-425aa) [2] = molecular target: T1, BoNT/A LC (1-425aa); assay: biochemical
BoNT/A LC = conditions: cited from earlier work

T1 sequence (P0DPI0 1-425 limits assumed): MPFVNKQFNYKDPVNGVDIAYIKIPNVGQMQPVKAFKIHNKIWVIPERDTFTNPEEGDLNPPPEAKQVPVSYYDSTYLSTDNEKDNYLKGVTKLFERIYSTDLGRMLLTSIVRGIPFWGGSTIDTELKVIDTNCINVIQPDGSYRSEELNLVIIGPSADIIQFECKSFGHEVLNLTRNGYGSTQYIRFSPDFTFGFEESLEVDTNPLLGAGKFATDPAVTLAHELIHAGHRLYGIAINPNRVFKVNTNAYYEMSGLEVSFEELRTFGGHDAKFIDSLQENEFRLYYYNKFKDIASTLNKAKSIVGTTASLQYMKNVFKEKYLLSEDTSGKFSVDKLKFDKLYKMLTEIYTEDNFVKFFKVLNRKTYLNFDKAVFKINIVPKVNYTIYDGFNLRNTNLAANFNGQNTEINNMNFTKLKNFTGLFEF

SMILES | inhibitory potency against BoNT/A LC relative to parent 3a (BoNT/A LC (1-425aa) [1]) | fold lower IC50 value than parent 3a (BoNT/A LC (1-425aa) [1]) | Ki (BoNT/A LC (1-425aa) [2]) [nM] | fold improved potency (lower Ki) than parent lead 3a (BoNT/A LC (1-425aa) [2]) [fold] | also measured
O=C(CC12CC3CC(C1)CC(C(=O)O)(C3)C2)NO [Compound 3h] | no activity | – | – | – | –
O=C(CC12CC3CC(CC(Cl)(C3)C1)C2)NO [Compound 3f] | comparable with the lead molecule | – | – | – | –
O=C(CC12CC3CC(C1)CC(c1ccc(Br)cc1)(C3)C2)NO [Compound 3p] | – | ~ 30 fold | ~30 | 17 | –
O=C(C[C@@H](CCO)c1ccc(Cl)cc1Cl)NO [XI] | – | – | – | – | fold lower inhibition constant than the parent X (BoNT/A LC): ~2 fold
O=C(CC12CC3CC(C1)CC(c1ccc(Cl)cc1)(C3)C2)NO [Compound 3o] | – | ~ 30 fold | ~30 | 17 | –
O=C(CC12CC3CC(CC(Br)(C3)C1)C2)NO [Compound 3g] | comparable with the lead molecule | – | – | – | –
